pEC50: −log10 of the molar value. Where two headings read alike, the source gives them in different places.
Target: T1, G protein-coupled receptor 119 (GPR-119) (Mesocricetus auratus, UniProt A0A1U8CD06)
T1 construct: hamster-derived β-cells containing G protein-coupled receptor 119 (GPR-119), HIT-T15 cells; host or cells: HIT-T15 (hamster pancreatic β-cells)
T1 sequence (A0A1U8CD06 1-334): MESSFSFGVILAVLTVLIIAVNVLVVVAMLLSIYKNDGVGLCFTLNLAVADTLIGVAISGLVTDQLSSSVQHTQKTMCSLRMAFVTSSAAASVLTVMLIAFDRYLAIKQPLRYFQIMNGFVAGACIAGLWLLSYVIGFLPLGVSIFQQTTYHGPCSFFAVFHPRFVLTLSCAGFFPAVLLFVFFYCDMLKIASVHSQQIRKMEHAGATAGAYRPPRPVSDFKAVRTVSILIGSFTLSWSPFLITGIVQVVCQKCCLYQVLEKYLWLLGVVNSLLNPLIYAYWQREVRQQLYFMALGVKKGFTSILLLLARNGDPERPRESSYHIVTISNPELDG
Experiment: Evaluation of cAMP activity in HIT-T15 cells (HTRF cAMP dynamic kit)
Type: cell-based, hamster
Settings: cAMP activation
Description: To check whether the cyclohexene derivatives according to the present invention activate cyclic adenosine monophosphate (cAMP), experiments were carried out, as follows.
The HIT-T15 cells were plated on a 96-well plate at 60,000 cells per well. On the next day of plating, the cells were treated with a varying concentration of each of the example compounds according to the present invention, and incubated at 37° C. for an hour. In this case, each of the treated compounds was used at six concentrations, ranging from […], to treat the cells.
The cyclic adenosine monophosphate (cAMP) activity was measured according to the manufacturer's instruction using a cAMP dynamic kit commercially available from Cis Bio Inc. (Bedford, Mass.). The cells were lysed, and a level of cAMP was determined by a competitive immunoassay using D2-labeled cAMP and a cryptate-labeled anti-cAMP antibody. Fluorescence was read in Flex Station (Molecular Devices). […] Unlabeled cAMP in the cell lysate competed with the D2-labeled cAMP against the cryptate-labeled antibody. Since a decrease in the measured intensity of the FRET signals represents a level of cAMP in the cells, the cAMP activities of the compounds are calculated as a change in FRET signals by adjusting an amount of dimethyl sulfoxide (DMSO).

[1] = 1 h at 37° C., six concentrations, read-out: EC50

Compound	pEC50 [1]	pEC50 (read-out: EC50 value)
CC(C)(C)OC(=O)N1CCC(COc2ccc(C3=CCC(C(=O)NC4CC4)CC3)cc2)CC1 (stereo not shown) [Example 2, tert-butyl 4-((4-(4-(cyclopropylcarbamoyl)cyclohex-1-enyl)phenoxy)methyl)piperidine-1-carboxylate]	7.40	≥ 7.30
CC(C)(C)OC(=O)N1CCC(COc2ccc(C3=CCC(C(=O)NCC(F)F)CC3)cc2)CC1 (stereo not shown) [Example 3, tert-butyl 4-((4-(4-(2,2-difluoroethylcarbamoyl)cyclohex-1-enyl)phenoxy)methyl)piperidine-1-carboxylate]	7.47	≥ 7.30
CC(C)(C)OC(=O)N1CCC(COc2ccc(C3=CCC(C(=O)NC[C@@H](O)CO)CC3)cc2)CC1 (stereo partly drawn) [Example 4, tert-butyl 4-((4-(4-((R)-2,3-dihydroxypropylcarbamoyl)cyclohex-1-enyl)phenoxy)methyl)piperidine-1-carboxylate]	6.82	
CC(C)(C)OC(=O)N1CCC(COc2ccc(C3=CCC(C(=O)N4CC[C@@H](O)C4)CC3)cc2)CC1 (stereo partly drawn) [Example 5, tert-butyl 4-((4-(4-((R)-3-hydroxypyrrolidine-1-carbonyl)cyclohex-1-enyl)phenoxy)methyl)piperidine-1-carboxylate]	7.54	≥ 7.30
CN(CCCO)C(=O)C1CC=C(c2ccc(OCC3CCN(C(=O)OC(C)(C)C)CC3)cc2)CC1 (stereo not shown) [Example 6, tert-butyl 4-((4-(4-((3-hydroxypropyl)(methyl)carbamoyl)cyclohex-1-enyl)phenoxy)methyl)piperidine-1-carboxylate]	7.42	≥ 7.30
CC(C)(C)OC(=O)N1CCC(COc2ccc(C3=CCC(C(=O)N4CCOCC4)CC3)cc2)CC1 (stereo not shown) [Example 7, tert-butyl 4-((4-(4-(morpholine-4-carbonyl)cyclohex-1-enyl)phenoxy)methyl)piperidine-1-carboxylate]	7.89	≥ 7.30
CCc1cnc(N2CCC(COc3ccc(C4=CCC(C(=O)N[C@H](C)CO)CC4)cc3)CC2)nc1 (stereo partly drawn) [Example 8, 4-(4-((1-(5-ethylpyrimidin-2-yl)piperidin-4-yl)methoxy)phenyl)-N-((R)-1-hydroxypropan-2-yl)cyclohex-3-enecarboxamide]	7.05	
CCc1cnc(N2CCC(COc3ccc(C4=CCC(C(=O)NCCCO)CC4)cc3)CC2)nc1 (stereo not shown) [Example 9, 4-(4-((1-(5-ethylpyrimidin-2-yl)piperidin-4-yl)methoxy)phenyl)-N-(3-hydroxypropyl)cyclohex-3-enecarboxamide]	7.12	
CC(C)(C)OC(=O)N1CCC(COc2ccc(C3=CCC(C(=O)NC[C@@H](O)CO)CC3)nc2)CC1 (stereo partly drawn) [Example 10, tert-butyl 4-((6-(4-((R)-2,3-dihydroxypropylcarbamoyl)cyclohex-1-enyl)pyridin-3-yloxy)methyl)piperidine-1-carboxylate]	6.30	
C[C@@H](CO)NC(=O)C1CC=C(c2ccc(OCC3CCN(C(=O)OC(C)(C)C)CC3)cn2)CC1 (stereo partly drawn) [Example 11, tert-butyl 4-((6-(4-((S)-1-hydroxypropan-2-ylcarbamoyl)cyclohex-1-enyl)pyridin-3-yloxy)methyl)piperidine-1-carboxylate]	6.96	
CCc1cnc(N2CCC(COc3ccc(C4=CCC(C(=O)NC[C@@H](O)CO)CC4)cc3)CC2)nc1 (stereo partly drawn) [Example 12, N-((R)-2,3-dihydroxypropyl)-4-(4-((1-(5-ethylpyrimidin-2-yl)piperidin-4-yl)methoxy)phenyl)cyclohex-3-enecarboxamide]	7.10	
CCc1cnc(N2CCC(COc3ccc(C4=CCC(C(=O)N5CCOCC5)CC4)cc3)CC2)nc1 (stereo not shown) [Example 13, (4-(4-((1-(5-ethylpyrimidin-2-yl)piperidin-4-yl)methoxy)phenyl)cyclohex-3-enyl)(morpholino)methanone]	7.89	≥ 7.30
CCc1cnc(N2CCC(COc3ccc(C4=CCC(C(=O)NC(CO)CO)CC4)cc3)CC2)nc1 (stereo not shown) [Example 15, N-(1,3-dihydroxypropan-2-yl)-4-(4-((1-(5-ethylpyrimidin-2-yl)piperidin-4-yl)methoxy)phenyl)cyclohex-3-enecarboxamide]	6.43	
